These results are taken from US10183030B2, “17α,21-diesters of cortexolone for use in the treatment of tumors” (COSMO TECHNOLOGIES LTD., priority 2014, dated 2019).

Where two headings read alike, the source gives them in different places.

Test [1] relates to MiaPaca-2 xenograft tumor. Nature of the test: MiaPaca2 human pancreatic tumor xenograft in nude mice, subcutaneous treatment. In kind it is in vivo, mouse. How it is done:
The test was carried out comparing the anti-tumor activity of cortexolone 17α-benzoate at two different dosages (8.0 mg/kg, corresponding approximately at 230 μM, and 40 mg/kg, corresponding approximately at 1150 μM), versus the vehicle (i.e. 0.4% (v/v) tween 80 and 0.5% (w/v) carboxymethylcellulose in normal saline) and versus the comparator Cyproterone Acetate at two different dosages (7.4 mg/kg and 37 mg/kg).
1×10^6 MiaPaca-2 cells suspended in matrigel were subcutaneously injected into 6 week old athymic nude mice.
The treatment with the tested compounds, with the vehicle and with the comparative compound, was initiated after the tumor volume has reached 50 mm^3 after transplantation. All compounds were injected 100 μL/mouse subcutaneously of low dose solution (approximately 230 μM) or 100 μL/mouse of high dose solution (approximately 1150 μM) of cortexolone 17α-benzoate, vehicle and cyproterone acetate, respectively. Compounds and controls were administered subcutaneously daily for 28 days.
Tumors were measured every 4 days with a digital caliper.
The results are plotted in FIG. 1 as average change in tumor volume relative to the start of treatment. Tumor volume was calculated according to the formula 0.5236(r1)^2(r2) where r1<r2.
The test was carried out comparing the anti-tumor activity of cortexolone 17α-valerate-21-propionate (CB-03-10) at two different dosages (approximately 8.6 mg/kg and 43 mg/kg) versus the vehicle (i.e. 0.4% (v/v) tween 80 and 0.5% (w/v) carboxymethylcellulose in normal saline) and versus the comparator Cyproterone Acetate at two different dosages (7.4 mg/kg and 37 mg/kg).
The treatment with the tested compound, with the vehicle and with the comparative compound was initiated after the tumor has reached a volume of 50 mm^3 after implantation, injecting subcutaneously 100 μL/mouse of low dose solution (approximately 230 μM) or 100 μL/mouse of high dose solution (approximately 1150 μM) of cortexolone 17α-valerate-21-propionate (CB-03-10), vehicle and cyproterone acetate, respectively. Compounds and controls were administered subcutaneously daily for 28 days.
The results are plotted in FIG. 2 as average change in tumor volume relative to the start of treatment. Tumor volume was calculated according to the formula 0.5236(r1)^2(r2) where r1<r2.
CPA a well-known anti-androgen was used as control. Briefly 1×10^6 MiaPaca2 cells suspended in matrigel were subcutaneously (SC) injected into 6 week old male athymic nude mice. Tumors were measured every 4 days with a digital caliper. Tumor volume was calculated according to the formula: 0.5236(r1) 2(r2) where r1<r2. Treatment with CB-03-10 and controls compounds was initiated after the tumor had reached 50 mm^3. Compounds diluted in DMSO/2-hydroxypropyl b-cyclodextrin (vehicle) were injected subcutaneously (SC) daily (100 μL/mouse) at the concentration of 40 mg/Kg daily for 28 consecutive days.

The next test addresses T1, wild type AR (AR-LBD) (Rattus norvegicus, UniProt P15207).
T1 construct: purchased life Technologies
Nature of the test: AR competition binding assay (Polar Screen, fluorescence polarization). The following applies: displacement of Fluormone AL Green from AR-LBD; read-out: affinity for AR receptor (IC50 molar).

The next test concerns MDA-MB-231 TNBC cells. Nature of the test: In vitro proliferation / cytotoxic assay, MDA-MB-231. The class given is cell-based. The following applies: Homo sapiens; MDA-MB-231 (ER−PR−GR++); 72 hours; Table VI; unit inferred; read-out: IC50 on breast cancer cells.
Test [2] deals with MiaPaca2 (AR low) pancreatic cancer cells. Nature of the test: ATP-dependent proliferation/viability assay, MiaPaca2. The following applies: Homo sapiens, read-out: IC50. The class given is cell-based. On the procedure:
The experimental method consisted of: • 1. […] After 24 hours, 10 nM DHT (dihydrotestosterone) with or without anti-androgen compounds, or DMSO vehicle (negative control) was added to the cultures. • 3.
Each compounds was titrated from 3 uM to 200 uM.

[3] abbreviates: Example 22, 40 mg/Kg SC daily for 28 days.

T1 sequence (P15207 651-882 limits assumed): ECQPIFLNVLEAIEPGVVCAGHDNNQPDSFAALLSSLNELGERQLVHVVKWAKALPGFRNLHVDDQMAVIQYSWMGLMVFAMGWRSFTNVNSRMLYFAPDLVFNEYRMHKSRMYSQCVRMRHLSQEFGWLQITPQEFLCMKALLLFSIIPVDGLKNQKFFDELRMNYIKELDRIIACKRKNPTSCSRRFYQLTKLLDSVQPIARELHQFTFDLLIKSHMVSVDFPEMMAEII
Experimental for MDA-MB-231 TNBC cells: After 72 hours incubation cell were harvested, lysed and viability determined using the cell titer glow assay for viability.
Experimental for wild type AR (AR-LBD): Briefly, the AR was added to a fluorescent androgen ligand (Fluormone™ AL Green) to from the complex AR-LBD. Competitors displaced the fluorescent Fluormone™ AL Green ligand from the AR-LBD causing the fluorescent ligand to tumble rapidly during its fluorescence lifetime, resulting in a low polarization value. Non competitors will not displace the fluorescent ligand from the complex, so the polarization value remains high. The shift in polarization value in the presence of test compounds is used to determine relative affinity of test compounds for AR-LBD.

Broadly, the IC50 is the concentration at which inhibition is half-maximal. In the case of `CCCCC(=O)O[C@]1(C(=O)COC(=O)CC)CC[C@H]2[C@@H]3CCC4=CC(=O)CC[C@]4(C)[C@H]3CC[C@@]21C` [CB-03-10, cortexolone 17α-valerate-21-propionate], the “pancreatic tumor size increase relative to the initial size, during the treatment period” value in test [1] (Example 22, 40 mg/Kg SC daily for 28 consecutive days) was “less than 5 fold”. Further, the Median survival in test [1] (setting [3]) is 70 days. The “tumor size increase 14 days after treatment was stopped” value in test [1] (setting [3]) is on record as 6 fold. Moreover, the “pancreatic tumor size increase relative to the start of treatment” value in test [1] (Examples 5 and 6, SC daily for 28 days, test compounds at high dose (approximately 1150 μM, 100 μL/mouse), Cyproterone Acetate treatment groups 7.4 and 37 mg/kg) is recorded as “less than 5 fold”. Besides, the IC50 at wild type AR (AR-LBD) stood at 1.1 µM; in the test on MDA-MB-231 TNBC cells, 106 µM; in test [2] (MIA PaCa-2, 72 h, MiaPaca2, 10 nM DHT, 3 days, Examples 3-4, Experiment 1), 43 µM; in test [2] (MIA PaCa-2, MiaPaca2, Example 7, Experiment 1), 34 µM.
